In patent US7087248B2, “Pharmaceutical component based on human parathyroid hormone and a pharmaceutical composition for intranasal administration comprising the component” (Daiichi Asubio Pharma Co., Ltd., priority 2000, dated 2006) one finds Irritability data, which are given here for six compounds.

For one data set, the system named is nasal cavity. Description: Sensory test (1): odor and irritation evoked by nasal spraying. Particulars: 0.6 w/v % aqueous solution sprayed into the nasal cavity; four healthy normal adult males. The protocol: As the control, physiological saline was used.
Then, aqueous solutions of various organic acids were prepared, in order to identify the factors responsible for the odor and irritation the preparation evokes when it is applied in the nasal cavity. The organic acid employed included acetic acid, citric acid and tartaric acid; oxalic acid; malic acid; phthalic acid; ascorbic acid; adipic acid; and glycolic acid.
Prepared were 0.1 v/v %, 0.2 v/v %, 0.3 v/v % and 0.6 v/v % aqueous solutions of acetic acid, and 0.6 w/v % aqueous solutions of citric acid, tartaric acid, oxalic acid, malic acid, phthalic acid, ascorbic acid, adipic acid, and glycolic acid. The solution was sprayed into the nasal cavity; and the odor and irritation were assessed in the same manner as above (testers consisting of four healthy normal adult males).
In the same manner as above, the test solution was applied in the nasal cavity, and the odor and irritation evoked thereby were assessed (testers consisting of 12 healthy normal adult males).
Turning to `O=C(O)CO` [Glycolic acid], the Irritability result is “the same with that from physiological saline and +”.
Same read-out and setting: the result for `O=C1O[C@H]([C@@H](O)CO)C(O)=C1O` [Ascorbic acid] reads “the same with that from physiological saline and +”.
Same read-out and setting: then `O=C(O)CC(O)C(=O)O` (stereo not drawn) [Malic acid], with “++++”.
On to `O=C(O)C(=O)O` [Oxalic acid], for which the Irritability result is recorded as “++++”.

The same data set, now with this note: in vivo.
In the case of `O=C(O)c1ccccc1C(=O)O` [Phthalic acid], the Irritability result is reported as “+++”.
For the compound `O=C(O)C(O)C(O)C(=O)O` (stereo not drawn) [Tartaric acid], the Irritability entry is on record as “++++”.
